Each structure is given as a SMILES string. “Also recorded” adds a separate entry of the source.

The subject of experiment [1] is ocular surface nociception induced by corneal scarification in Cynomolgus monkeys. Kind of experiment: Mild corneal abrasion (scarification) model of ocular discomfort, nictation (blinking) rate. It counts as in vivo, Cynomolgus monkey. As to the method: A prostanoid IP receptor antagonist (4,5-dihydro-N-[4-[[4-(1-methylethoxy)phenyl]methyl]phenyl]-1H-imadazol-2-amine RO-1138452, CAY 10441), at a dose of 0.3% w/v in an aqueous 1% polysorbate 80 in Tris-HCL (a standard ocular vehicle used in testing of ophthalmic drugs), was administered topically to the ocular surface of […] Cynomolgus monkeys. Cynomologus monkeys are the closest animal model for humans. A model that replicates an actual clinically encountered ocular condition, namely corneal abrasion, was employed.
As an animal model indicative of both ocular discomfort and pain, mild corneal scarification and measurement of the resultant increased blinking (nictation) rate was employed. The species chosen was the Cynomologous monkey and there are reasons for this selection. […] Increased rate of blinking (nictation) is recognized as a reliable end-point indicative of discomfort and pain and was, therefore, used in the studies described herein. There is a linear correlation between ocular surface sensory-evoked stimulation and blink rate in humans (Wu et al., 2014). Increased blinking frequency is associated with a diverse variety of conditions that elicit ocular discomfort and pain such as air borne noxious contaminants (Lang et al., 2008), acidic solutions (Collejo et al, 2015), dry eye conditions and wearing contact lenses (Wu et al., 2014). Thus, increased blinking rate is a universal indicator of ocular surface nociception resulting in discomfort and pain.
The drug formulation was administered post-scarification of the cornea, and at identical time points on two subsequent days. Ocular discomfort was monitored as the nictation (blinking) rate. Blinking is an established human behavioral response to corneal discomfort and irritation (Lang et al., 2008; Wu et al., 2014; Callejo et al., 2015). […]
A total of eight naïve Cynomolgus monkeys were used. […] The nictation rate (blinking rate) was measured to provide quantification of discomfort. […]

For a further experiment, the system named is ocular pain. Kind of experiment: Patient case examples: ocular pain after topical ocular administration. The format is in vivo, human. The note with it: Example II: person, extreme ocular discomfort with pain; 0.3% w/v solution, then twice a day. The text has this: A person was suffering from extreme ocular discomfort which was associated with pain. […] A person suffers a grade 2 chemical eye burn from an acidic substance. Despite being administered prednisolone acetate 1% every two hours, severe ocular pain persists. The physician will administer Formula 3 from Table I, three times a day. […] After 7-21 days, the patient experiences corneal/conjunctival epithelium and keratocytes proliferate. Collagen synthesis begins. A person suffers from aqueous tear deficient dry eye associated occasionally with moderate to severe sharp ocular pain.

In the case of `CC(C)Oc1ccc(Cc2ccc(NC3=NCCN3)cc2)cc1` [4,5-dihydro-N-[4-[[4-(1-methylethoxy)phenyl]methyl]phenyl]-1H-imadazol-2-amine], in experiment [1] (0.3% w/v topical once daily on Day 4 and Day 5 after corneal scarification on Day 3, n=4 per group, P<0.01 vs vehicle), the “nictation rate in drug treated eyes compared with vehicle” value is reported as “statistically significantly lower”. Besides, the “ocular surface nociception induced by scarification” value in experiment [1] (0.3% w/v topical, P≤0.01 non-paired t-test) was “significantly reduced”. In experiment [1] (two days after the surgery (Day 5-16:00)), the “difference in blinking rate, control vs. treated group” value is on record as “minimal”. Besides, the ocular pain result in the experiment with ocular pain was “immediate reduction of ocular pain; also recorded: all pain is reduced and eventually disappears”.

The values above are taken from US11857537B2, “Use of prostacyclin antagonists for treating ocular surface nociception” (JENIVISION INC., priority 2016, dated 2024).
